# Results taken from publication PMC9147192, “Small Molecule Arranged Thermal Proximity Coaggregation (smarTPCA)—A Novel Approach to Characterize Protein–Protein Interactions in Living Cells by Similar Isothermal Dose–Responses” (International Journal of Molecular Sciences, 2022).
# Where “and” joins values, the source holds several entries; their conditions need not be identical. Equal entries are not always repeated. Where two headings read alike, the source gives them in different places.
# Experiments:
# [1] = test system: MAPK14; set-up: method as in Seashore-Ludlow et al., Biochemistry 2018; conditions: MAPK14 only, ref Seashore-Ludlow et al., Biochemistry 2018, cited from earlier work
# [2] = molecular target: MAPK14 (Homo sapiens, UniProt Q16539); assay: CETSA in HL-60 cell extract, immunoblot; type: binding
# Sequence of MAPK14 (Homo sapiens, UniProt Q16539) (Q16539 whole entry): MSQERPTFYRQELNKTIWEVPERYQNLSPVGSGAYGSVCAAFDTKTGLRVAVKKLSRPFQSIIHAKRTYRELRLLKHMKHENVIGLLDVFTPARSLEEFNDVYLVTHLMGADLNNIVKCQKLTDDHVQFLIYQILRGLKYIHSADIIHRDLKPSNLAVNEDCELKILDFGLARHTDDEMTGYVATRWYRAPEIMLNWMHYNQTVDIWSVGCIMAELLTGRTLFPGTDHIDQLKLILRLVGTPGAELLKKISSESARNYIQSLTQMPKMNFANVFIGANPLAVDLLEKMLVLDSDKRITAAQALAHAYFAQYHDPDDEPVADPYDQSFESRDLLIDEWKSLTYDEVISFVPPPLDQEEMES
# Procedure: (§1) For the differentiation of primary and secondary binding effects, CETSA experiments using cell extracts instead of living cells (cell extract test) are proposed in the literature. Therefore, we performed CETSA assays in HL-60 cell extracts under the same conditions as for living cells (Figure 1, Table 1, Supplementary Table S6).
# (§2) HL-60 cells were expanded as described above for CETSA and TPP-TR to about 1.25 million cells per ml. 50 mL of the cell suspension, respectively, was transferred into 50 mL conical tubes. After centrifugation (300 rcf, 3 min, r.t.) and removing all of the supernating culture medium, the cells were washed twice with 25 mL PBS (r.t.) by gently resuspending the cells, followed by centrifugation (300 rcf, 3 min, r.t.) and the removal of the supernatant. The cells were transferred into pre-weighed 2 mL LoBind Eppendorf tubes using 1 mL PBS (r.t.), respectively, for resuspending. After centrifugation (300 rcf, 3 min, r.t.) and removing as much as possible of the supernatants, the cell wet weights were determined. The cells were stored at −80 °C after shock-freezing in liquid nitrogen.
# (§3) Cell extracts were obtained by four freeze/thaw cycles as described above for CETSA and TPP-TR using 10 µL ice cold PBS supplemented with protease inhibitors per milligram of cell pellet wet weight for the initial resuspension of the pellet, followed by centrifugation (20,000 rcf, 30 min, 4 °C), and the recovery of the supernatant. After determining the protein content, the cell extracts were diluted to 1.8 mg/mL total protein concentration using ice-cold PBS supplemented with protease inhibitors and aliquots of 99 µL in PCR tube strips, and 1.1 mL in LoBind 1.5 mL Eppendorf tubes were shock-frozen in liquid nitrogen and stored at −80 °C or directly processed.
# (§4) A fourth aliquot of 1.8 mg/mL HL-60 cell extract was supplemented with 2.2 µL of DMSO. […] After a brief centrifugation using a benchtop centrifuge, the temperature treatment at the ten different temperatures was performed as described in Section 4.1.1.
# (§5) Additionally, the preparation of cell extracts containing the fraction of soluble, non-denatured proteins was performed as described in Section 4.1.1. for living cells, but omitting the freeze/thaw steps for cell lysis.
# (§6) For each sample set comprising either ten temperature range samples or ten compound concentration range samples, the same volume of the cell extracts containing the fraction of soluble, non-denatured proteins was used for further analysis. This volume was determined using the two lowest temperature samples (36.5 and 41.2 °C) per temperature range sample set so that they contained an average of 5 µg total protein (e.g., 2.78 µL for all temperature range samples of a sample set whose two lowest temperature samples contain an average of 1.8 mg/mL protein). For the compound concentration range experiments, all samples of a set were used for averaging. The calculated volume was respectively transferred into PCR tubes of a tube strip, supplemented with SDS sample buffer (final concentrations: 25 mM dithiothreitol (DTT), 7.5% glycerol, 3% SDS, 37.5 mM Tris/HCl pH 7.0, 0.005% bromophenol blue), incubated for 10 min at r.t. and applied to SDS-PAGE under external cooling in an ice bath (MW marker: PageRuler pre-stained protein ladder (Thermo scientific, Waltham, MA, USA); NuPAGE 4–12% Bis-Tris Gels, 1.0 mm, Midi Protein Gel, 26-well (Thermo fisher scientific); ice cold MOPS SDS running buffer (50 mM MOPS, 50 mM Tris base, 0.1% SDS, 0.003% EDTA (free acid)); 50 V for 15 min, then 200 V for about 1.5 h, i.e., the rest of the run).
# [3] = molecular target: MAPKAPK3 (Homo sapiens, UniProt Q16644); assay: CETSA in HL-60 cell extract, immunoblot; type: binding
# Sequence of MAPKAPK3 (Homo sapiens, UniProt Q16644) (Q16644 whole entry): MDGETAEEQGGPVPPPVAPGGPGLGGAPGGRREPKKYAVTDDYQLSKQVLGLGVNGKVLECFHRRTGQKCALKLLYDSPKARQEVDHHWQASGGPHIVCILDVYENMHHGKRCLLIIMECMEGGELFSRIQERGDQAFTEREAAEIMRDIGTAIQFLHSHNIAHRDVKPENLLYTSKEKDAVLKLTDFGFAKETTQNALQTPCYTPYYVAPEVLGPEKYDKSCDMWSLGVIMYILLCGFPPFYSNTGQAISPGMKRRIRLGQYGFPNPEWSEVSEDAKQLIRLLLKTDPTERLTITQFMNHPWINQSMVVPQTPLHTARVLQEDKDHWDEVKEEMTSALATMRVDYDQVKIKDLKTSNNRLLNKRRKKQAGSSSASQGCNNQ
# Sequence of MAPKAPK3 (Homo sapiens, UniProt Q16644) (Q16539 whole entry partner): as the sequence (Q16539 whole entry) above
# Procedure: as §1, §2, §3, §4, §5, §6
# [4] = molecular target: T1, MAPKAPK2p (Homo sapiens, UniProt P49137); assay: CETSA in HL-60 cell extract, immunoblot; type: binding
# T1 construct: phosphorylation-dependent electrophoretic mobility shift (PDEMS) of MAPKAPK2, which appeared as a double band; endogenous in cells; host or cells: HL-60 (ATCC CCL-240), living cells or cell extract
# T1 sequence (P49137 whole entry): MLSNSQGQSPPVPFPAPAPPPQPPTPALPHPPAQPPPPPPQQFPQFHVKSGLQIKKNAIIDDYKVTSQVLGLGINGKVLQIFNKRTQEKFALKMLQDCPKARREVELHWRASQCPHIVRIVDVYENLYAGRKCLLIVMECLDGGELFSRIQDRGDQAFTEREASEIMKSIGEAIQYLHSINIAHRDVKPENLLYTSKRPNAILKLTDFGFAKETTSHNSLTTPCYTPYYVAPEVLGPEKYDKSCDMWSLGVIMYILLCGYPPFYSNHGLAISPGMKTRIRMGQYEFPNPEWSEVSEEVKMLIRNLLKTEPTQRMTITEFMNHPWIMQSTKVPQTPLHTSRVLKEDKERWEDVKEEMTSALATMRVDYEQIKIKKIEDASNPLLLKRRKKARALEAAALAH
# T1 sequence (Q16539 2-360 partner): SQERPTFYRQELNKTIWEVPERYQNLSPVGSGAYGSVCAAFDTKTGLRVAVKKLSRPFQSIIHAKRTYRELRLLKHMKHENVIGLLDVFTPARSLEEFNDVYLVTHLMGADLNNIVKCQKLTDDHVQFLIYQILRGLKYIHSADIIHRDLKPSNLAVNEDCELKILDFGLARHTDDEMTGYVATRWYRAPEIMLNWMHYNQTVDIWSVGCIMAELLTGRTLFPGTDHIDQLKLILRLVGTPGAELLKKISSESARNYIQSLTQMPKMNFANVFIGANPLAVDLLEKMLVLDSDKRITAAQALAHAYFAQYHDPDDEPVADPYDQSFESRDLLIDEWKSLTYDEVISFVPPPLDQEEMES
# Procedure: as §1, §2, §3, §4, §5, §6
# [5] = molecular target: MARS (Homo sapiens, UniProt P56192); assay: TPP-CCR in living HL-60 cells
# Sequence of MARS (P56192 whole entry): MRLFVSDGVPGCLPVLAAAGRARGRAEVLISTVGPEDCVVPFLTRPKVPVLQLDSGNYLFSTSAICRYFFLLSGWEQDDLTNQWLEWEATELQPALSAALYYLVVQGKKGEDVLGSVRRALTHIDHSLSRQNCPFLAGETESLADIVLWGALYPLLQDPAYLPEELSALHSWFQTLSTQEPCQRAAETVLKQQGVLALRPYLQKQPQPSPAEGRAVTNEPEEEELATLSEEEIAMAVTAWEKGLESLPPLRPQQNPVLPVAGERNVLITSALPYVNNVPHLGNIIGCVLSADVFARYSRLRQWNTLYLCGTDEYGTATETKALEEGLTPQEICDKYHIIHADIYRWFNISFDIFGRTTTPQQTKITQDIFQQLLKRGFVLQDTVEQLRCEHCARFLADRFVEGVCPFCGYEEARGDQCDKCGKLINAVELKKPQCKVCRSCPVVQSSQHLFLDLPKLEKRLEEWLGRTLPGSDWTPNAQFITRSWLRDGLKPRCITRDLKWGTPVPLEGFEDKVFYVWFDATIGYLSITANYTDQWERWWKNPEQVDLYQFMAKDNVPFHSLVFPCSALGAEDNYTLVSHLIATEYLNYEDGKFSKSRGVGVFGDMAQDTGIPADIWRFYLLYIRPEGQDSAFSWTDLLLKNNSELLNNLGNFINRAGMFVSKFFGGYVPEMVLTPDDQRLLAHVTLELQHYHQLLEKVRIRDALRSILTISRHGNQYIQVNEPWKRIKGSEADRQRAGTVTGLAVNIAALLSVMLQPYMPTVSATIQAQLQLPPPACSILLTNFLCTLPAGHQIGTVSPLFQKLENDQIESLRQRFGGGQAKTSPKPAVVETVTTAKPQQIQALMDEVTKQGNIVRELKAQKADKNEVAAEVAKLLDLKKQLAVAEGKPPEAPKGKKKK
# [6] = test system: MAPKAPK3; set-up: method as in PMID 23398362; conditions: cited from earlier work
# [7] = test system: MAPKAPK2; set-up: method as in PMID 22037378; conditions: cited from earlier work
# [8] = test system: MYLK; set-up: method as in PMID 23398362; conditions: cited from earlier work
# [9] = test system: MAPK8; set-up: method as in PMID 23398362; conditions: cited from earlier work
# [10] = HL-60 cell extract, 20 µM inhibitor, immunoblot
# [11] = HL-60 cell extract, 20 µM inhibitor, immunoblot, 20 µM
# [12] = MAPKAPK3, cell extract, immunoblot
# [13] = MAPKAPK2p, cell extract, immunoblot
structure (smiles),measurement,setting,value
Cn1c(NC[C@@H](N)Cc2ccccc2)nc(-c2ccncc2)c(-c2ccc3ccccc3c2)c1=O [AMG-548],"pEC50, Living cells",[1]; extrapolated to 50°C and extracted from figure 3b,8.57
same,"pEC50, Living cells",[1]; extrapolated to […]°C and extracted from figure 3b,8.23
same,ΔTm at 20 µM,"[2]; 20 µM inhibitor, read-out: ΔTm to DMSO in Cell Extract Compared to Living Cells (MAPK14)",-1.16 °C
same,"Tm difference vs DMSO, same protein","[2]; CETSA in cell extract (lysate), MAPK14, inhibitor minus DMSO",13.60
same,Tm (fitted melting curve),"[2]; CETSA in cell extract (lysate), MAPK14, in °C",59.15
same,Tm (MAPK14),[2]; [10],59.15 °C
same,ΔTm at 20 µM,"[2]; HL-60 cell extract, 20 µM inhibitor, immunoblot, read-out: ΔTm to DMSO (MAPK14)",13.6 °C
same,Tm,"[2]; MAPK14, cell extract, immunoblot",59.15 °C
same,ΔTm to DMSO in Cell Extract Compared to Living Cells (MAPKAPK3),[3]; 20 µM inhibitor,−3.99 °C
same,"Tm difference vs DMSO, same protein","[3]; CETSA in cell extract (lysate), MAPKAPK3, inhibitor minus DMSO",2.63
same,Tm (fitted melting curve),"[3]; CETSA in cell extract (lysate), MAPKAPK3, in °C",49.31
same,Tm (MAPKAPK3),[3]; [10],49.31 °C
same,ΔTm to DMSO (MAPKAPK3),[3]; [11],2.6 °C and 2.63 °C
same,ΔTm to DMSO in cell extract compared to living cells,"[3]; MAPKAPK3, cell extract minus living cells",-3.99 °C
same,Tm,[3]; [12],49.31 °C
same,ΔTm to DMSO,[3]; [12],2.63 °C
same,"Tm difference vs DMSO, same protein","[4]; CETSA in cell extract (lysate), MAPKAPK2p, inhibitor minus DMSO",2.82
same,Tm (fitted melting curve),"[4]; CETSA in cell extract (lysate), MAPKAPK2p, in °C",50.95
same,Tm (MAPKAPK2p),[4]; [10],50.95 °C
same,ΔTm to DMSO (MAPKAPK2p),[4]; [11],2.82 °C
same,ΔTm to DMSO (MAPKAPK2p),"[4]; HL-60 cell extract, 20 µM inhibitor, immunoblot, listed as AMG548, 20 µM",2.8 °C
same,Tm,[4]; [13],50.95 °C
same,ΔTm to DMSO,[4]; [13],2.82 °C
same,EC50,[5],209 nM
same,Hill slope (MARS),"[5]; living HL-60 cells, […] °C, TMT-MS",0.40
C[S+]([O-])c1ccc(-c2nc(-c3ccncc3)c(-c3ccc(F)cc3)[nH]2)cc1 (centres unmarked) [SB203580],activity against MAPKAPK3,[6],inactivity
same,activity towards MAPKAPK2,[7],inactivity
same,activity against MYLK,[8],inactivity
same,activity against MAPK8,[9],inactivity
